# Measured values: publication PMC9571433, “Design, Synthesis, Anti-Varicella-Zoster and Antimicrobial Activity of (Isoxazolidin-3-yl)Phosphonate Conjugates of N1-Functionalised Quinazoline-2,4-Diones” (Molecules, 2022)
# Like-named read-outs stand apart in the source and are kept apart here.
# Tests used:
# [1] = tested on: E. coli ATCC 25922; test: Broth microdilution MIC/MBC; conditions: Escherichia coli, ATCC25922, 24 h, read-out: MIC = MBC
# [2] = tested on: TK– VZV 07-1 strain; test: microbe, parasite or virus in culture; format: cell-based, varicella-zoster virus; conditions: Human alphaherpesvirus 3, HEL, read-out: Antiviral Activity EC50 TK– VZV Strain (07-1)
# [3] = tested on: TK+ VZV OKA strain; test: microbe, parasite or virus in culture; format: cell-based, varicella-zoster virus; conditions: Human alphaherpesvirus 3, HEL, read-out: Antiviral Activity EC50 TK+ VZV Strain (OKA)
# [4] = tested on: C. albicans ATCC 10241; test: Broth microdilution MIC/MBC (antifungal); conditions: Candida albicans, ATCC10241, read-out: MIC = MBC
# [5] = tested on: P. aeruginosa ATCC 27853; test: Broth microdilution MIC/MBC; conditions: Pseudomonas aeruginosa, ATCC27853, 24 h, read-out: MIC = MBC
# [6] = tested on: Salmonella typhimurium TA98, TA100, TA1535 and TA1537 and Escherichia coli WP2 uvrA[pKM101]; test: Ames mutagenicity assay (Ames MPF Penta I, bacterial reverse mutation test, with S9); format: cell-based; conditions: up to 0.625 mg/mL; with Aroclor 1254-induced rat liver S9
# Description: The study was performed using a standard microplate Ames MPF^TM Penta I kit (Xenometrix, Allschwil, Switzerland), compliant with the OECD guideline […] [29] and the International Organization for Standardization. This test is a widely accepted short-term bacterial assay for the identification of substances that can produce genetic damage that leads to gene mutations. The bacterial strains used in this assay have various mutations that inactivate a gene involved in the synthesis of essential amino acids, either histidine (Salmonella typhimurium, TA98, TA100, TA1535 and TA1537 strains) or tryptophan (Escherichia coli, WP2uvrA[pKM101 strain), so they can only grow in the culture medium that is supplemented with that amino acid. The mutagenic potential of the sample was assessed after metabolic activation in the presence of Aroclor 1254-induced rat liver S9 (S9 Cofactor kit, Xenometrix, Allschwil, Switzerland). […]
# Mutagenicity was determined using a standard microplate AMES MPF^TM PENTA I kit according to the manufacturer’s instructions (Xenometrix, Allschwil, Switzerland). […] The number of wells containing revertant colonies was counted for each dose and compared to a solvent (negative) control. […] The mutagenic potential of the sample was assessed after metabolic activation in the presence of Aroclor 1254-induced rat liver S9 (S9 Cofactor kit, Xenometrix, Allschwil, Switzerland). […]
# [7] = tested on: S. aureus ATCC 2593; test: Broth microdilution MIC/MBC; conditions: Staphylococcus aureus, ATCC2593, 24 h, read-out: MIC = MBC
# [8] = tested on: A. brasiliensis ATCC 16404; test: Broth microdilution MIC/MBC (antifungal); conditions: Aspergillus brasiliensis, ATCC16404, 72 h, read-out: MIC = MBC
# [9] = tested on: B. cereus PCM 1948; test: Broth microdilution MIC/MBC; conditions: Bacillus cereus
# [10] = tested on: E. faecalis ATCC 29212; test: Broth microdilution MIC/MBC; conditions: Enterococcus faecalis, ATCC29212, 24 h
# [11] = tested on: human embryonic lung (HEL) cells; conditions: minimum cytotoxic concentration causing microscopically detectable alteration of cell morphology
# [12] = tested on: varicella-zoster virus (VZV); design: method as in PMID 24906510, PMID 28763115, PMID 24219992; conditions: read-out: EC50 inhibition of replication of varicella-zoster virus (VZV); cited from earlier work
# [13] = tested on: adenovirus-2; design: method as in PMID 28763115; conditions: read-out: EC50 towards adenovirus-2; cited from earlier work
structure (smiles),measurement,setting,value
"CCOP(=O)(OCC)[C@H]1C[C@H](Cn2c(=O)c3ccccc3n(Cc3cccc(F)c3)c2=O)ON1C (relative stereo) [Diethyl trans-(5-((1-(3-fluorobenzyl)-2,4-dioxo-1,4-dihydroquinazolin-3(2H)-yl)methyl)-2-methylisoxazolidin-3-yl)phosphonate]",MIC,[1],2500 µg/mL
same,EC50,[2],58.5 µM
same,EC50,[3],100 µM
same,MIC,[4],2500 µg/mL
same,MIC,[5],2500 µg/mL
same,Mutagenicity (Ames test),[6],not being mutagenic
same,MIC,[7],5000 µg/mL
same,MIC,[8],5000 µg/mL
same,MIC,[9]; PCM1948,625 µg/mL
same,MIC,"[9]; PCM1948, 24 h, read-out: MIC = MBC",625 µg/mL
same,MBC,[10],> 5000 µg/mL
same,MIC,[10],> 5000 µg/mL
same,Cytotoxicity Cell Morphology MCC,[11],>100 μM
O=C(c1ccc(F)cc1)n1c(=O)c2ccccc2n(Cc2cn(CCCOCc3ccccc3)nn2)c1=O [6a],EC50,[12],6.8 to 8.2 µM
C#CCn1c(=O)n(C(=O)c2ccc(F)cc2)c(=O)c2ccccc21 [compound 5],EC50,[13],8.3 µM
